Numbered stars: 1 amine (or outer) side, 2 acyl side, 3 side chain; on linkers, the order of the positions; unused ones are H or OH. Square brackets hold non-standard residues; d marks the D form. Peptide text beside a SMILES is read from it. * marks the point of attachment. X1 = O=C(O)[C@H]1O[C@@H](Oc2ccc(COC(=O)[*:2])cc2N[*:1])[C@H](O)[C@@H](O)[C@@H]1O; CH3O(CH2CH2O)11CH2CH2CO = COCCOCCOCCOCCOCCOCCOCCOCCOCCOCCOCCOCCC(=O)*; Dolaproine = CO[C@@H]([C@@H]1CCCN1)[C@@H](C)C(=O)O; Hexanoyl(6-maleimido) = O=C1C=CC(=O)N1CCCCCC(=O)*; Propanoyl(3-maleimido) = O=C1C=CC(=O)N1CCC(=O)*; Dil = CC[C@H](C)[C@H](NC)[C@@H](CC(=O)O)OC; PABC = O=C(OCc1ccc(N[*:1])cc1)[*:2]; X2 = C[C@@H](N*)[C@@H](O)c1ccccc1; Cit = NC(=O)NCCC[C@H](N)C(=O)O; NMeV = CN[C@H](C(=O)O)C(C)C; βAla = NCCC(=O)O

Results on 5 molecules are retold here after patent publication US20250057969A1, “CONJUGATES COMPRISING CLEAVABLE LINKERS” (priority 2023, published 2025).

Common to all, as to type: biochemical
In experiment [1] the target is T1, Human neutrophil elastase (Homo sapiens, UniProt P08246).
T1 sequence (P08246 30-267): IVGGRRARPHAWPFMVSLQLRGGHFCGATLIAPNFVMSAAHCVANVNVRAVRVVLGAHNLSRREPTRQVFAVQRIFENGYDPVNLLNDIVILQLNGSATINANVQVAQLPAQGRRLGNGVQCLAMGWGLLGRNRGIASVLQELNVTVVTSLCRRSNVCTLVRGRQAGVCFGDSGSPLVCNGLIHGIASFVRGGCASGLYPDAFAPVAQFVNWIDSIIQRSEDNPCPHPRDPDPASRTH
As to the kind of experiment: Linker-Payload enzymatic cleavage with human neutrophil elastase. The conditions noted are these: 0.67 μM enzyme, 67 μM Linker-Payload, pH 7.4, 37° C., 24 hours. As for the experimental part: 0.67 μM Human neutrophil elastase was added to 67 μM Linker-Payload (1:100) in Tris Buffered Saline, pH 7.4. The mixture was incubated at 37° C. for a duration of 24 hours with intermediate timepoints collected and diluted 1:1 with buffer containing acetonitrile, water and formic acid. The sample was measured by reverse-phase HPLC with data quantified against a standard curve.

The target in the next experiment is Cathepsin B (Homo sapiens, UniProt P07858). As to the kind of experiment: Linker-Payload enzymatic cleavage with Cathepsin B. The conditions noted are these: 0.14 μM enzyme, 70 μM Linker-Payload, pH 5.0, 37° C., 24 hours. How it is done: 0.14 μM Cathepsin B was added to 70 μM Linker-Payload (1:500) in 50 mM sodium acetate, 1 mM DTT, pH 5.0. The mixture was incubated at 37° C. for a duration of 24 hours with intermediate timepoints collected and diluted 1:1 with buffer containing acetonitrile, water and formic acid. The sample was measured by reverse-phase HPLC with data quantified against a standard curve.

The next experiment concerns the target T2, β-glucuronidase (Homo sapiens, UniProt P08236).
T2 sequence (P08236 23-651): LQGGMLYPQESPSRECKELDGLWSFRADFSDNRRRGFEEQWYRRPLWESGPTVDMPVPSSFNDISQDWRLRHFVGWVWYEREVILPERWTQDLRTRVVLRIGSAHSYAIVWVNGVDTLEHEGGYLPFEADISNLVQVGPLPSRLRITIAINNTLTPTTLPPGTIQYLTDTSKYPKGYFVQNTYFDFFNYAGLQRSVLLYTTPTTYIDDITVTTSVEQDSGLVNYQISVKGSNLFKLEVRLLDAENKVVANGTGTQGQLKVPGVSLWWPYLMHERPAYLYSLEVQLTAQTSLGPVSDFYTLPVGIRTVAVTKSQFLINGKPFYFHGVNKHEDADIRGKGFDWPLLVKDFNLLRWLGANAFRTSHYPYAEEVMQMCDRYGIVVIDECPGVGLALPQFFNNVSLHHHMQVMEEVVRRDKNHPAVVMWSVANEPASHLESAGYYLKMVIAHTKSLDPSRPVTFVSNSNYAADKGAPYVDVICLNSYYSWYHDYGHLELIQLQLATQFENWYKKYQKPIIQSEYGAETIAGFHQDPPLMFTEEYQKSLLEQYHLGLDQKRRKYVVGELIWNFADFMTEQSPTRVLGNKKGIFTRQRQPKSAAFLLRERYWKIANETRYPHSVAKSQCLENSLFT
Nature of the experiment: Linker-Payload enzymatic cleavage with β-glucuronidase. As to conditions: 4 nM enzyme, 40 μM Linker-Payload, pH 5.0, 37° C., 24 hours. How it is done:
4 nM β-glucuronidase was added to 40 μM Linker-Payload (1:10,000) in 50 mM sodium acetate, pH 5.0. The mixture was incubated at 37° C. for a duration of 24 hours with intermediate timepoints collected and diluted 1:1 with buffer containing acetonitrile, water and formic acid. The sample was measured by reverse-phase HPLC with data quantified against a standard curve.

In the case of `CC[C@H](C)[C@@H]([C@@H](CC(=O)N1CCC[C@H]1[C@H](OC)[C@@H](C)C(=O)N[C@H](C)[C@@H](O)c1ccccc1)OC)N(C)C(=O)[C@@H](NC(=O)[C@H](C(C)C)N(C)C(=O)OCc1ccc(NC(=O)[C@H](CCCNC(N)=O)NC(=O)[C@@H](NC(=O)CCCCCN2C(=O)C=CC2=O)C(C)C)cc1)C(C)C` [LP1, maleimidocaproyl-valine-citrulline-p-amrninobenzoyloxycajrbonyl-MMAE, reference compound] ({Hexanoyl(6-maleimido)}-V[Cit][PABC][NMeV]V[Dil][Dolaproine]-X2), the “cleavage in the presence of human neutrophil elastase (FIG. 1C)” value (shortened to “cleavage in the presence … (FIG. 1C)”) in experiment [1] is listed as “underwent more rapid cleavage”.
In the case of `CC[C@H](C)[C@@H]([C@@H](CC(=O)N1CCC[C@H]1[C@H](OC)[C@@H](C)C(=O)N[C@H](C)[C@@H](O)c1ccccc1)OC)N(C)C(=O)[C@@H](NC(=O)[C@H](C(C)C)N(C)C(=O)OCc1ccc(O[C@@H]2O[C@H](C(=O)O)[C@@H](O)[C@H](O)[C@H]2O)c(CNC(=O)CCNC(=O)COC2(CNC(=O)CCN3C(=O)C=CC3=O)CN(C(=O)CCOCCOCCOCCOCCOCCOCCOCCOCCOCCOCCOCCOC)C2)c1)C(C)C` [LP2], on Cathepsin B, the “cleavage in the presence of cathepsin B (FIG. 1B)” value is “neither LP2 nor LP3 underwent rapid cleavage”. In experiment [1], the “cleavage in the presence … (FIG. 1C)” value is on record as “did not undergo rapid cleavage” and the “cleavage in the presence of human neutrophil elastase (FIG. 1D)” value (“cleavage in the presence … (FIG. 1D)” below) is recorded as “did not undergo rapid cleavage”. Also, at β-glucuronidase, the “cleavage in the presence of β-glucuronidase (FIG. 1A)” value is “underwent significant cleavage”; the “cleavage rate in the presence of β-glucuronidase relative to LP7 and LP8 (FIG. 1E)” value is “underwent slower cleavage than both LP7 (Reference) and LP8 (Reference)”.
As for `CC[C@H](C)[C@@H]([C@@H](CC(=O)N1CCC[C@H]1[C@H](OC)[C@@H](C)C(=O)N[C@H](C)[C@@H](O)c1ccccc1)OC)N(C)C(=O)[C@@H](NC(=O)[C@H](C(C)C)N(C)C(=O)OCc1ccc(O[C@@H]2O[C@H](C(=O)O)[C@@H](O)[C@H](O)[C@H]2O)c(CNC(=O)CCNC(=O)[C@H](CCCCNC(=O)CCOCCOCCOCCOCCOCCOCCOCCOCCOCCOCCOCCOC)NC(=O)CCN2C(=O)C=CC2=O)c1)C(C)C` [LP7, reference compound], in experiment [1], the “cleavage in the presence … (FIG. 1D)” value is “did not undergo rapid cleavage”.
`CC[C@H](C)[C@@H]([C@@H](CC(=O)N1CCC[C@H]1[C@H](OC)[C@@H](C)C(=O)N[C@H](C)[C@@H](O)c1ccccc1)OC)N(C)C(=O)[C@@H](NC(=O)[C@H](C(C)C)N(C)C(=O)OCc1ccc(O[C@@H]2O[C@H](C(=O)O)[C@@H](O)[C@H](O)[C@H]2O)c(CNC(=O)COC2(CNC(=O)CCN3C(=O)C=CC3=O)CN(C(=O)CCOCCOCCOCCOCCOCCOCCOCCOCCOCCOCCOCCOC)C2)c1)C(C)C` [LP3]: the “cleavage in the presence of cathepsin B (FIG. 1B)” value at Cathepsin B was “neither LP2 nor LP3 underwent rapid cleavage”. In addition, the “cleavage in the presence … (FIG. 1C)” value in experiment [1] is recorded as “did not undergo rapid cleavage”. Also, the “cleavage in the presence of β-glucuronidase (FIG. 1A)” value at β-glucuronidase was “underwent significant cleavage”.
In the case of `CC[C@H](C)[C@@H]([C@@H](CC(=O)N1CCC[C@H]1[C@H](OC)[C@@H](C)C(=O)N[C@H](C)[C@@H](O)c1ccccc1)OC)N(C)C(=O)[C@@H](NC(=O)[C@H](C(C)C)N(C)C(=O)OCc1ccc(O[C@@H]2O[C@H](C(=O)O)[C@@H](O)[C@H](O)[C@H]2O)c(NC(=O)CCNC(=O)[C@H](CCCCNC(=O)CCOCCOCCOCCOCCOCCOCCOCCOCCOCCOCCOCCOC)NC(=O)CCN2C(=O)C=CC2=O)c1)C(C)C` [LP8, reference compound] ({Propanoyl(3-maleimido)}-K(CH3O(CH2CH2O)11CH2CH2CO)[βAla][X1][NMeV]V[Dil][Dolaproine]-X2), in experiment [1], the “cleavage in the presence … (FIG. 1D)” value was “did not undergo rapid cleavage”.
